Results taken from patent US11267844B2, “Spirothietane nucleosides” (Janssen Pharmaceutica NV, priority 2017, dated 2022).
Read-outs that look alike come from different tables or passages of the source.

Experiments:
[1] = system: HCV replicon (NS3-NS5B regions of HCV type 1b) in Huh-7 luc/neo cells; assay: HCV replicon assay (Huh-Luc cells, luciferase read-out); format: cell-based; conditions: Hepatitis C virus
Excerpt: The compounds of Formula (I) were examined for activity against HCV in a cellular assay. […] The cellular assay was based on a bicistronic expression construct, as described by Lohmann et al. (1999) Science vol. 285 pp. 110-113 with modifications described by Krieger et al. (2001) Journal of Virology 75: 4614-4624, in a multi-target screening strategy.
In essence, the method was as follows. The assay utilized the stably transfected cell line Huh-7 luc/neo (hereafter referred to as Huh-Luc). This cell line harbors an RNA encoding a bicistronic expression construct comprising the wild type NS3-NS5B regions of HCV type 1b translated from an internal ribosome entry site (IRES) from encephalomyocarditis virus (EMCV), preceded by a reporter portion (FfL-luciferase), and a selectable marker portion (neo^R, neomycine phosphotransferase). The construct is bordered by 5′ and 3′ NTRs (non-translated regions) from HCV genotype 1b. Continued culture of the replicon cells in the presence of G418 (neo^R) is dependent on the replication of the HCV-RNA. The stably transfected replicon cells that express HCV-RNA, which replicates autonomously and to high levels, encoding inter alia luciferase, were used for screening the antiviral compounds.
The replicon cells were plated in 384-well plates in the presence of the test and control compounds which were added in various concentrations. Following an incubation of three days, HCV replication was measured by assaying luciferase activity (using standard luciferase assay substrates and reagents and a Perkin Elmer ViewLux™ ultraHTS microplate imager). Replicon cells in the control cultures have high luciferase expression in the absence of any inhibitor. The inhibitory activity of the compound on luciferase activity was monitored on the Huh-Luc cells, enabling a dose-response curve for each test compound. EC50 values were then calculated, which value represents the amount of the compound required to decrease the level of detected luciferase activity by 50%, or more specifically, the ability of the genetically linked HCV replicon RNA to replicate.

CHIKV strain S27 = assay: CHIKV CPE inhibition assay in Huh7 cells; format: cell-based; conditions: Chikungunya virus
Protocol: The antiviral activities of the nucleoside analogs against chikungunya virus (CHIKV) were tested using a cell-based high-throughput CPE (cytopathic effect) inhibition assay. In this assay, CHIKV strain S27 and Huh7 cells (a human hepatoma cell line) were employed. The test compounds were prepared in a 9-point fourfold serial dilutions and plated in a 384-well plate. Then, a density of 8000 cells/well and an MOI (Multiplicity of Infection) of 0.25 CHIKV were added to each well. The plates were incubated at 37° C./5% CO2 for 2 days. The antiviral activity of a test compound was measured by addition of an ATPLite™ 1-step kit (PerkinElmer), which measures the ATP levels in live cells protected from viral CPE by a test compound. The cytotoxicity of test compounds was measured in parallel in the absence of virus infection. The readout is luminescence.

DENV-2/16681/eGFP [2] = assay: Antiviral activity against DENV-2/16681/eGFP in Huh-7 cells (eGFP read-out); format: cell-based, dengue virus serotype 2; conditions: Dengue virus, DENV2, Huh-7, 72 h, read-out: DENV Huh-7 (EC50, μM)
Protocol: (§1) The antiviral activity of the compounds against DENV-2/16681/eGFP was determined in a phenotypic antiviral assay with eGFP read-out, a measure for the amount of virus (TV-WI-03476 and TV-WI-05601). In parallel, cytotoxicity of the compounds was measured using ATPLite™ (PerkinElmer, Waltham, Mass.). The assay was performed in two different cell-lines (Vero and Huh-7) to exclude cell-specific activity of the compound.
(§2) DENV-2/16681/eGFP was produced by the transfection of the in vitro transcribed RNA of plasmid pFK-DVs-G2A (purchased from Prof. R. Bartenschlager, University of Heidelberg, Germany; FIG. 1) into Huh-7 cells (human hepatocarcinoma cells; kindly provided by Prof. R. Bartenschlager) (TV-WI-04247).
(§3) In brief, 2,500 Vero cells (African green monkey kidney cells; European Collection of Cell Cultures [ECACC], Porton Down, UK; catalogue number 84113001) or Huh-7 cells were seeded in 384-well plates containing 9-fold serially diluted test compound. After incubating 24 h at 37° C., Vero and Huh-7 cells were infected with DENV-2/16681/eGFP at a multiplicity of infection (MOI) of 1 and 5, respectively. After 3 days of incubation at 37° C., the viral replication was quantified by measuring eGFP expression in the cells with a laser microscope. The 50% effective concentration (EC50) was defined as the concentration inhibiting 50% of the eGFP expression of the compound-treated DENV-infected cells vs. the untreated DENV-infected cells (virus control), using the cell controls as baseline of eGFP signal (i.e., 0% signal). In the same way, the 90% effective concentration (EC90) was calculated.

[3] = Cytotoxicity in Huh-7 cells (ATPlite cell viability); format: cell-based; conditions: human, Table 1A, read-out: Tox Huh-7 (CC50)
Protocol: as §1
(§4) In parallel, cytotoxic effects of the compounds (50% cytotoxic concentration [CC50] and 90% cytotoxic concentration [CC90]) were evaluated using an ATPlite cell viability luminescence assay (PerkinElmer). To this end, ATPlite was added to the wells according to the supplier's instructions once the eGFP read-out was performed, and the luminescence was measured; a measure directly relating to the number of viable cells. The CC50 was determined as the 50% inhibitory concentration for the luminescent signal in compound-treated DENV-infected cells compared to untreated DENV-infected cells (virus control), using a medium control as baseline of emitted light (i.e., 0% signal).

DENV-2/16681/eGFP [4] = assay: Antiviral activity against DENV-2/16681/eGFP in Vero cells (eGFP read-out); format: cell-based, dengue virus serotype 2; conditions: Dengue virus, DENV2, Vero, 72 h, read-out: DENV Vero (EC50, μM)
Protocol: as §1, §2, §3

[5] = Cytotoxicity in Vero cells (ATPlite cell viability); format: cell-based; conditions: African green monkey, Table 1A, read-out: Tox Vero (CC50)
Protocol: as §1, §4

[6] = Huh-7, Table 1C, comparison with spiro-oxetane derivatives, read-out: HCV, Huh-7 (EC50)
[7] = Huh-7, Table 1C, comparison with spiro-oxetane derivatives, read-out: CHIKV, Huh7 (EC50)
[8] = Huh-7, 72 h, Table 1A, Huh-Luc replicon cells, 3 days, read-out: HCV Huh-7 (EC50)
[9] = Huh-7, 48 h, Table 1A, Huh7 cells, MOI 0.25, 2 days, read-out: CHIKV Huh-7 (EC50)
[10] = Huh-7, 48 h, read-out: CHIKV Huh-7 (EC50, μM)

CC(C)OC(=O)[C@H](C)NP(=O)(OC[C@H]1O[C@@H](n2ccc(=O)[nH]c2=O)[C@@]2(CCO2)[C@@H]1O)Oc1ccccc1 (mixture of isomers) [reference compound] gave an EC50 [1, 6] of 21 µM and an EC50 (CHIKV strain S27; [7]) of over 100 µM.
CC(C)OC(=O)[C@H](C)NP(=O)(OC[C@@]1(F)O[C@@H](n2ccc(=O)[nH]c2=O)[C@@]2(CCO2)[C@@H]1O)Oc1ccccc1 (mixture of isomers) [reference compound] showed an EC50 [1, 6] of over 100 µM and an EC50 (CHIKV strain S27; [7]) of over 100 µM.
CC(C)OC(=O)C(C)NP(=O)(OC[C@@]1(N=[N+]=[N-])O[C@@H](n2ccc(=O)[nH]c2=O)[C@@]2(CCS2)[C@@H]1O)Oc1ccccc1 (stereo in doubt) [Compound 45, isopropyl (2R)-2-[[[(4R,5R,6R,8R)-6-azido-8-(2,4-dioxopyrimidin-1-yl)-5-hydroxy-7-oxa-1-thiaspiro[3.4]octan-6-yl]methoxy-phenoxy-phosphoryl]amino]propanoate] showed an EC50 [1, 8] of 5 µM, an EC50 (DENV-2/16681/eGFP [2]) of 62 µM and a CC50 [3] of over 100 µM. The EC50 (DENV-2/16681/eGFP [4]) was 62 µM, the CC50 [5] was over 100 µM and the EC50 (CHIKV strain S27; [9]) was over 100 µM.
O=c1ccn([C@@H]2O[C@H](CO)[C@@H](O)[C@]23CCS3)c(=O)[nH]1 [Compound 7, 1-((4R,5R,7R,8R)-8-hydroxy-7-(hydroxymethyl)-6-oxa-1-thiaspiro[3.4]octan-5-yl)pyrimidine-2,4(1H,3H)-dione] showed an EC50 [1, 8] of over 100 µM, a CC50 [3] of over 100 µM and an EC50 (DENV-2/16681/eGFP [4]) of over 100 µM. The CC50 [5] was over 100 µM.
CC(C)OC(=O)[C@H](C)NP(=O)(OC[C@H]1O[C@@H](n2ccc(=O)[nH]c2=O)[C@@]2(CCS2)[C@@H]1O)Oc1ccccc1 (stereo partly drawn) [Compound 9, (2S)-isopropyl 2-(((((4R,5R,7R,8R)-5-(2,4-dioxo-3,4-dihydropyrimidin-1(2H)-yl)-8-hydroxy-6-oxa-1-thiaspiro[3.4]octan-7-yl)methoxy)(phenoxy)phosphoryl)amino)propanoate] gave an EC50 [1, 8] of 1 µM, an EC50 [1, 6] of 1 µM and an EC50 (DENV-2/16681/eGFP [2]) of 9 µM. The CC50 [3] was over 100 µM, the EC50 (DENV-2/16681/eGFP [4]) was over 100 µM and the CC50 [5] was over 100 µM. For the same molecule, the EC50 (CHIKV strain S27; [9]) was 18 µM and the EC50 (CHIKV strain S27; [7]) was 18 µM.
Work on CC(C)C(=O)OC[C@H]1O[C@@H](n2ccc(=O)[nH]c2=O)[C@@]2(CCS2)[C@@H]1OC(=O)C(C)C [Compound 10, (4R,5R,7R,8R)-5-(2,4-dioxo-3,4-dihydropyrimidin-1(2H)-yl)-7-((isobutyryloxy)methyl)-6-oxa-1-thiaspiro[3.4]octan-8-yl isobutyrate] yielded an EC50 [1, 8] of over 100 µM, an EC50 (DENV-2/16681/eGFP [2]) of over 100 µM and a CC50 [3] of over 100 µM. It also gave an EC50 (DENV-2/16681/eGFP [4]) of over 100 µM, a CC50 [5] of over 100 µM and an EC50 (CHIKV strain S27; [10]) of over 100 µM.
With CC(C)C(=O)OC[C@H]1O[C@@H](n2ccc(N)nc2=O)[C@@]2(CCS2)[C@@H]1OC(=O)C(C)C [Compound 11, (4R,5R,7R,8R)-5-(4-amino-2-oxopyrimidin-1(2H)-yl)-7-((isobutyryloxy)methyl)-6-oxa-1-thiaspiro[3.4]octan-8-yl isobutyrate] the EC50 [1, 8] was over 100 µM, the EC50 (DENV-2/16681/eGFP [2]) was over 100 µM and the CC50 [3] was over 100 µM. For the same molecule, the EC50 (DENV-2/16681/eGFP [4]) was over 100 µM, the CC50 [5] was over 100 µM and the EC50 (CHIKV strain S27; [10]) was over 100 µM.
Nc1ccn([C@@H]2O[C@H](CO)[C@@H](O)[C@]23CCS3)c(=O)n1 [Compound 12, 4-amino-1-((4R,5R,7R,8R)-8-hydroxy-7-(hydroxymethyl)-6-oxa-1-thiaspiro[3.4]octan-5-yl)pyrimidin-2(1H)-one] gave an EC50 [1, 8] of over 100 µM, an EC50 (DENV-2/16681/eGFP [2]) of over 100 µM and a CC50 [3] of over 100 µM. It also gave an EC50 (DENV-2/16681/eGFP [4]) of over 100 µM, a CC50 [5] of over 100 µM and an EC50 (CHIKV strain S27; [10]) of over 100 µM.
Molecule CC(C)OC(=O)[C@H](C)NP(=O)(OC[C@H]1O[C@@H](n2ccc(N)nc2=O)[C@@]2(CCS2)[C@@H]1O)Oc1ccccc1 (stereo partly drawn) [Compound 17, (2S)-isopropyl 2-(((((4R,5R,7R,8R)-5-(4-amino-2-oxopyrimidin-1(2H)-yl)-8-hydroxy-6-oxa-1-thiaspiro[3.4]octan-7-yl)methoxy)(phenoxy)phosphoryl)amino)propanoate] has an EC50 [1, 8] of over 50 µM, an EC50 (DENV-2/16681/eGFP [2]) of 19 µM and a CC50 [3] of over 50 µM. The EC50 (DENV-2/16681/eGFP [4]) was over 50 µM, the CC50 [5] was over 50 µM and the EC50 (CHIKV strain S27; [9]) was over 50 µM.
Molecule O=c1ccn([C@@H]2O[C@](F)(CO)[C@@H](O)[C@]23CCS3)c(=O)[nH]1 [Compound 22, 1-((4R,5R,7S,8R)-7-fluoro-8-hydroxy-7-(hydroxymethyl)-6-oxa-1-thiaspiro[3.4]octan-5-yl)pyrimidine-2,4(1H,3H)-dione] has an EC50 [1, 8] of 84 µM, an EC50 (DENV-2/16681/eGFP [2]) of 69 µM and a CC50 [3] of over 100 µM. The EC50 (DENV-2/16681/eGFP [4]) was 63 µM, the CC50 [5] was over 100 µM and the EC50 (CHIKV strain S27; [10]) was over 100 µM.
For CC(C)OC(=O)[C@H](C)NP(=O)(OC[C@@]1(F)O[C@@H](n2ccc(=O)[nH]c2=O)[C@@]2(CCS2)[C@@H]1O)Oc1ccccc1 (stereo partly drawn) [Compound 23, (2S)-isopropyl 2-(((((4R,5R,7S,8R)-5-(2,4-dioxo-3,4-dihydropyrimidin-1(2H)-yl)-7-fluoro-8-hydroxy-6-oxa-1-thiaspiro[3.4]octan-7-yl)methoxv)(phenoxy)phosphoryl)amino)propanoate], the EC50 [1, 8] was 2 µM, the EC50 [1, 6] was 2 µM and the EC50 (DENV-2/16681/eGFP [2]) was 14 µM. For the same molecule, the CC50 [3] was over 100 µM, the EC50 (DENV-2/16681/eGFP [4]) was 85 µM and the CC50 [5] was over 100 µM. It also gave an EC50 (CHIKV strain S27; [9]) of 3 µM and an EC50 (CHIKV strain S27; [7]) of 3 µM.
Work on CCCCOC(=O)[C@H](C)NP(=O)(OC[C@@]1(F)O[C@@H](n2ccc(=O)[nH]c2=O)[C@@]2(CCS2)[C@@H]1O)Oc1ccccc1 (stereo partly drawn) [Compound 25, (2S)-butyl 2-(((((4R,5R,7S,8R)-5-(2,4-dioxo-3,4-dihydropyrimidin-1(2H)-yl)-7-fluoro-8-hydroxy-6-oxa-1-thiaspiro[3.4]octan-7-yl)methoxy)(phenoxy)phosphoryl)amino)propanoate] yielded an EC50 [1, 8] of 2 µM, an EC50 (DENV-2/16681/eGFP [2]) of 4 µM and a CC50 [3] of over 100 µM. The EC50 (DENV-2/16681/eGFP [4]) was 35 µM, the CC50 [5] was over 100 µM and the EC50 (CHIKV strain S27; [9]) was 3 µM.
